The source made the active and inactive calls. The calls are words filed in the database; no cut-off is given here.

Series [1] in a line: Drug uptake in African green monkey COS-1 cells at 10 uM measured after 24 hrs by trypan blue staining based LC-MS/MS analysis. The format is ADME, cell-based. The note with it: chlorocebus aethiops, cos-1, 24 h.
Series [2] addresses T1, Retinoic acid receptor RXR-alpha (Homo sapiens, UniProt P19793).
T1 sequence (P19793 whole entry): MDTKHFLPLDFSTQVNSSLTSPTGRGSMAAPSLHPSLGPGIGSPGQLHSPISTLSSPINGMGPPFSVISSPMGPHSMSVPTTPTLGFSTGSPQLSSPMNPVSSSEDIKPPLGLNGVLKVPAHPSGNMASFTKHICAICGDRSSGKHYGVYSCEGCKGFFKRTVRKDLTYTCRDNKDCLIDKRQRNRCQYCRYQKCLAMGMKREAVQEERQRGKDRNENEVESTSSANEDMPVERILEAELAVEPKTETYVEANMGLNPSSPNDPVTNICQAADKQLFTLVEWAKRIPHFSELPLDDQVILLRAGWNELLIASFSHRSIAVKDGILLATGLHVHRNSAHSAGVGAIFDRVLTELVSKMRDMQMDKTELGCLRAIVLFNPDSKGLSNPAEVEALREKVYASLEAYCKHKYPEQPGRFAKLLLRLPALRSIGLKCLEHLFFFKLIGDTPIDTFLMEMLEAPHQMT
The series is described as follows: Displacement of NEt-C343 from human RXRalpha-LBD expressed in African green monkey COS-1 cells assessed as inhibition constant incubated for 2 hrs by competitive binding assay. The format is cell-based.

The species entered for a further series is Homo sapiens. As to the kind of experiment: Ratio of Ki for displacement of NEt-C343 from human RXRalpha-LBD expressed in African green monkey COS-1 cells to Kd for binding affinity to human RXRalpha-LBD expressed in African green monkey COS-1 cells. Type of series: cell-based.
For series [3], the target named is T1, Retinoic acid receptor RXR-alpha. As to the kind of experiment: Binding affinity to human RXRalpha-LBD expressed in African green monkey COS-1 cells assessed as dissociated constant incubated for 2 hrs by tryptophan fluorescence quenching assay. The format is cell-based.
The target of series [4] is T2, Retinoic acid receptor RXR-alpha (Homo sapiens) (UniProt P19793).
T2 sequence (whole entry): T1 sequence (P19793 whole entry)
As to the kind of experiment: Antagonist activity at human RXR-alpha expressed in African green monkey COS-1 cells assessed as reduction in NEt-TMN-induced receptor transactivation by measuring shift in concentration-response curve at 1 uM by luciferase reporter gene assay. Background: Reporter assays use an easily measured gene product as a stand-in for the process of interest.

The target of series [5] is T1, Retinoic acid receptor RXR-alpha. As to the kind of experiment: Antagonist activity at human RXR-alpha expressed in African green monkey COS-1 cells assessed as reduction in NEt-TMN-induced receptor transactivation at 1 uM by luciferase reporter gene assay. Type of series: cell-based. The note with it: read-out: pA2 (converted).
For series [6] the target is unchanged. The series is described as follows: Antagonist activity at human RXR-alpha expressed in African green monkey COS-1 cells assessed as reduction in bexarotene-induced receptor transactivation at 1 uM by luciferase reporter gene assay. The following applies: read-out: pA2 (converted). The format is cell-based.

In the case of `CCCCCCOc1cc2c(cc1-n1nnc3cc(C(=O)O)ccc31)C(C)(C)CCC2(C)C`, the Drug uptake in series [1] was 81.6 pg/10^4 cells. For the same compound, the Ki in series [2] was found to be 3160 nM. In the series listed under Homo sapiens, the Ratio was 4.48. The Kd in series [3] amounted to 705 nM. Also, in series [4], the outcome was inactive.
Take `CCCCCOc1cc2c(cc1-n1nnc3cc(C(=O)O)ccc31)C(C)(C)CCC2(C)C`: the Drug uptake in series [1] was determined as 10.2 pg/10^4 cells. The Ki in series [2] was determined as 3540 nM. For the same compound, the Ratio in the series filed under Homo sapiens amounted to 4.63. In addition, the Kd in series [3] was found to be 764 nM. For the same compound, in series [4], the outcome was inactive.
Regarding `CCCCCOc1cc2c(cc1-n1c(C(F)(F)F)nc3cc(C(=O)O)ccc31)C(C)(C)CCC2(C)C`, the Kb in series [5] was 26.3 nM; in series [6] it was 8.71 nM. The compound also had a Drug uptake in series [1] of 14.8 pg/10^4 cells. Further, the Ki in series [2] is 384 nM. Also, the Ratio in the series filed under Homo sapiens came out at 1.39. Further, in series [3], the Kd was determined as 277 nM.
In series [1], `CCCCCCOc1cc2c(cc1-n1c(C(F)(F)F)nc3cc(C(=O)O)ccc31)C(C)(C)CCC2(C)C` had a Drug uptake of 55.1 pg/10^4 cells.

What is called Ki is the equilibrium dissociation constant of an inhibitor or competing ligand from its target. A word on the Kd: it is a measure of binding affinity in units of concentration.

The record behind these values is ChEMBL document CHEMBL5029199, “Increased Molecular Flexibility Widens the Gap between K i and K d values in Screening for Retinoid X Receptor Modulators” (ACS Med Chem Lett, 2022).
